One experiment deals with HIT-T15 β-cells. The experiment can be described thus: Survival of cytokine-treated HIT-T15 β-cells (MTT). The following applies: cytokines (IFN-γ/TNF-α/IL-1β), peptides 1 nM to 100 nM. The class given is cell-based. On the procedure:
The survival effect of UAG (6-13) (SEQ ID NO: 6), UAG (8-13) (SEQ ID NO: 7), UAG (8-12) (SEQ ID NO: 8), UAG (8-11) (SEQ ID NO: 12), UAG (9-12) (SEQ ID NO: 9) and UAG (9-11) (SEQ ID NO: 10) was assessed in cytokine-treated HIT-T15 β-cells. […] The protective effects of peptides UAG (8-13) (SEQ ID NO: 7) and UAG (8-12) (SEQ ID NO: 8) were found similar to those of UAG (1-14) (SEQ ID NO: 2) and UAG (1-18) (SEQ ID NO: 3). A peptide made of the inverse sequence of UAG (1-14) (SEQ ID NO: 2) and named UAG (14-1) (SEQ ID NO: 11), was used as negative control for these experiments. […] These effects were however lower than those of UAG (6-13) (SEQ ID NO: 6).

Experiment [1] deals with CAC. The experiment can be described thus: Detection of ROS in CAC (DCF-DA assay, FACS). The class given is cell-based, human. On the procedure: (§1) Peripheral-blood mononuclear cells (PB-MNC) isolated by Fycoll Histopaque 1077 (Sigma) were resuspended in 20% FBS 199 Medium and plated on fibronectin-coated dishes (Biocoat, Becton Dickinson Labware) as described by Hill et al. (Ref. 19). Human UAG studies were performed on CAC recovered from normal donors and diabetic patients. The purity of sorted cells was assessed by FACS analysis (Ref. 20). For experiments, the isolated CAC were cultured under 5% CO2 at 37° C. for 4 days on 20 μg/ml fibronectin-coated dishes in EGM-2 medium containing 10% FBS, hydrocortisone, human Fibroblast Growth Factor, Vascular Endothelial Growth Factor, Insulin Growth Factor 1, ascorbic acid, human Epidermal Growth Factor, gentamicin and amphotericin-B (Cambrex, Walkersville, Md., USA) alone or in combination with 1 μM UAG and 1.2 mg/ml AGE. In selected experiments, isolated CAC were cultured in EBM-2 medium (Cambrex, Walkersville, Md., USA) supplemented with 10 ng/ml of IL-3. FACS was used to analyze their phenotype (anti-CD45, anti-CD31, anti-CD105, anti-CD14 antibodies were used) (Ref. 22).
Detection of ROS—DCF-DA (0.5 μM final concentration) was added to CAC in the indicated culture conditions. At the indicated times, the cells were subjected to FACS analysis and processed as previously described (Ret. 22). H2O2 was used as positive control.

In experiment [2] the test system is CAC. The experiment can be described thus: CAC senescence (acidic β-gal activity), cultured CAC. Type of experiment: cell-based, human. The note with it: FIG. 2A. On the procedure: as §1
CAC Senescence—Senescence was evaluated by acidic β-gal activity on CAC recovered from normal subjects cultured in EGM2 medium for 4 days with UAG or AGE+UAG and saline- or UAG-treated diabetic patients (Ref. 22). […] SA-β-gal-positive cells were counted manually by 3 independent investigators.

Experiment [3] concerns CAC. The experiment can be described thus: Arterial specification of recovered human CAC (Q-RT-PCR of Ephrin B2, Notch1, Notch4, EphB4). The class given is in vivo. The following applies: cells from treated patients cultured with IL-3; FIG. 3D. On the procedure:
(§2) RNA isolation and quantitative real-time PCR—CAC from diabetic patients, healthy subjects and mice treated with UAG or saline were cultured in EGM-2 medium. Human arterial and venous cells were used as a positive controls. mRNA quantification was performed by Q-RT-PCR, as previously described (Ref. 24). The relative expression of Ephrin B2, Notch1, Notch4 and EphB4 were calculated by using comparative threshold cycle methods. The human and murine primer sequences used were described (Refs. 25, 26).

Experiment [4] relates to CAC. The experiment can be described thus: CAC mobilization assay in diabetic and control mice. The following applies: FIG. 4B. Type of experiment: in vivo. On the procedure:
Diabetic and control mice—Mice were divided in four groups. The plasma glucose and insulin determination for each group are reported. Sixteen 6 weeks old ob/ob mice (blood glucose, 600±45 mg/dL, insulin, 5.5±0.9 ng/ml); sixteen C56BL6/J wild type mice (blood glucose, 150±18.2 mg/dL, insulin, 1±0.05 ng/ml); ten 7 weeks old NOD/SCID mice (blood glucose, 164±12.9 mg/dL, insulin 1.2±0.12 ng/ml); ten 17 weeks old NOD/SCID mice (blood glucose, 536±36.3 mg/dL, insulin 4.85±0.74 ng/ml). Animal procedures conformed to the Guide for Care and Use of […] (National Institutes of Health publication no. 93-23, revised 1985).
Isolation and Culture of CAC from C57BU6J, C57BL/6J ob/ob mice and NOD/SCID mice—6 weeks old C57BL/6J (wt) and ob/ob mice, 7 and 17 weeks old NOD/SCID mice were purchased from Charles River Lab (Lecco, Italy). Animals were anesthetized by intraperitoneal injection with Avertin (100 mg/50ml ip). Blood samples were drawn from left ventricular, as described by Hoff (Ref. 27). Peripheral blood MNC were isolated by Ficoll density-gradient centrifugation. […]
Mobilization assay—Mice were treated for 12 hours with UAG or saline. CAC recovered and purified as above described, were put in culture and counted by three independent investigators. The technical ratio of CAC was calculated by comparing the numbers of CAC/μL of blood drawn from left ventricular.

In experiment [5] the test system is CAC. The experiment can be described thus: Expansion (S phase) of CAC recovered from treated mice. Type of experiment: in vivo. The note with it: CAC from UAG-challenged mice, IL-3; FIG. 4C. The method, then:
Flow Cytometry—To analyze CAC cell-cycle progression, cells recovered from diabetic, healthy subjects, NOD/SCID, ob/ob and wt mice, were cultured in EBM-2 supplemented with IL-3 (10 ng/ml), FACS analysis was performed as previously described (Ref. 20). Cell surface molecules were evaluated by flow cytometry as previously described (Ref. 24). Frequency of marker-positive cells is expressed as mean±standard deviation (SD).
(§3) Isolation and Culture of CAC from C57BU6J, C57BL/6J ob/ob mice and NOD/SCID mice—6 weeks old C57BL/6J (wt) and ob/ob mice, 7 and 17 weeks old NOD/SCID mice were purchased from Charles River Lab (Lecco, Italy). Animals were anesthetized by intraperitoneal injection with Avertin (100 mg/50ml ip). Blood samples were drawn from left ventricular, as described by Hoff (Ref. 27). Peripheral blood MNC were isolated by Ficoll density-gradient centrifugation. Recovered cells were washed twice Isolated cells were resuspended and were cultured on 20 μg/ml fibronectin-coated dishes in EGM-2 BulletKit Medium. In selected experiments, the isolated CAC were cultured in EBM-2 medium supplemented with 10 ng/ml of IL-3.

Experiment [6] relates to CAC. The experiment can be described thus: Arterial commitment of CAC recovered from treated mice (Q-RT-PCR). Type of experiment: in vivo. The following applies: CAC from UAG-challenged mice cultured with IL-3; FIG. 4D. The method, then:
as §2, §3

In the next experiment the test system is human arteries. The note with it: Ref. 35; cited from earlier work.

Where no end group is shown, it is not given here.

For “1-NH2Gly-Ser-Ser-Phe-Leu-Ser-Pro-Glu-His-Gln-Arg-Val-Gln-Gln-Arg-Lys-Glu-Ser-Lys-Lys-Pro-Pro-Ala-Lys-Leu-Gln-Pro-Arg-28 (GSSFLSPEHQRVQQRKESKKPPAKLQPR; ends and bridges not checked; listed as Homo sapiens) [UAG]”, the “survival effect on cytokine-induced cell death” value with HIT-T15 β-cells was “comparable”. Besides, in the experiment on CAC [1] (AGE-cultured CAC, FIG. 1C, 1F), the “level of ROS production in AGE-cultured cells” value is on record as “reduced”. Also, the “intracellular ROS production in diabetic-recovered cells” value in the experiment on CAC [1] (CAC isolated from type 2 diabetic patients, FIG. 1D) was “reduced intracellular ROS production”. Further, the “baseline level of ROS production” value in the experiment with CAC [1] (compared to untreated cells, FIG. 1B, 1E) is listed as “drastically reduces the baseline level of ROS production”. Also, the “number of senescent cells (SA-β-gal activity)” value in the experiment on CAC [2] (CAC cultured with UAG alone) is listed as “reduce the number of senescent cells”. In addition, the “number of SA-β-gal positive cells” value in the experiment with CAC [2] (UAG added to AGE-cultured CAC) is listed as “significant reduction in the number of SA-β-gal positive cells”. In addition, the “arterial specification (Ephrin B2, Notch1, Notch4 vs EphB4)” value in the experiment on CAC [3] is “able to undergo arterial specification”. For the same substance, in the experiment on CAC [4] (diabetic NOD/SCID mice), the “percentage of recovered cells” value is on record as “increase the percentage of recovered cells”. In addition, the “number of recovered cells relative to untreated wild type mice” value with CAC [4] (ob/ob mice) is “fully restores the number of CAC to normal physiological levels”. For the same substance, the “expansion of recovered CAC” value with CAC [5] is given as “could be expanded”. In addition, the “arterial commitment of recovered CAC” value in the experiment on CAC [6] is “acquire arterial commitment”. In the experiment on human arteries, the vasodilator action result was “vasodilator actions”.

Values taken from patent publication US8476408B2, “Unacylated ghrelin and analogs as therapeutic agents for vascular remodeling in diabetic patients and treatment of cardiovascular disease” (Alize Pharma SAS, priority 2008, dated 2013).
